Data set [1] deals with Sprague-Dawley rats. Nature of the data set: Assay I: acute in vivo effects on mean arterial pressure and renal blood flow, anesthetized rats. Set-up: species or system rat. Particulars: for MAP / RBF: 100 mg/kg i.v. On the procedure:
Sprague-Dawley rats were anesthetized with inactin (100 mg/kg, i.p.) and catheters were implanted into a carotid artery for measurement of mean arterial pressure (Gould model 3800 chart recorder; Statham pressure transducer model no. P23DB) and into a jugular vein for compound administrations (i.v.). In addition, a flow probe was implanted around the left renal artery for measurement of renal blood flow using Carolina Medical Electronics flow probes. Rats were allowed 60 min to stabilize before 10 minutes of control recordings of mean arterial pressure and renal blood flow were obtained. Control measurements were followed by intravenous injection of Ex. #3 conjugate and saline vehicle.

Data set [2] deals with spontaneously hypertensive rats. Kind of data set: Assay II: chronic i.v. infusion, mean arterial pressure in spontaneously hypertensive rats (Ex. #3). The format is in vivo, rat. The following applies: SHR, continuous infusion 5 mg/hr. On the procedure: The Ex. #3 conjugate and saline vehicle were infused continuously for four days in spontaneously hypertensive rats. Mean arterial pressure was measured (Gould Chart Recorder, model 3800; Statham P23Db pressure transducer) via an indwelling femoral artery catheter between 10:00 a.m. and 2:00 p.m. each day. The Ex. #3 conjugate was infused at 5 mg/hr and the saline vehicle was infused at 300 μL,/hr. via a jugular vein catheter with a Harvard infusion pump.

The results in this text go back to patent publication US20030220521A1, “Renal-selective prodrugs for control of renal sympathetic nerve activity in the treatment of hypertension” (G.D. Searle & Co., priority 1989, published 2003).

SMILES strings stand for the structures. Where a name gives a salt, the structure may show the parent alone.

`CCCCc1ccc(C(=O)NCCNC(=O)CCC(NC(C)=O)C(=O)O)nc1` (as salt: salt) [Ex. #861, N^2-acetyl-N-[2-[[(5-butyl-2-pyridinyl)carbonyl]amino]ethyl]-L-glutamine]: the melting point (as a rule, the temperature of the solid-liquid transition) was 156 to 158 °C.

With `CC(=O)NC(CCC(=O)N[C@@](C)(Cc1ccc(O)cc1)C(=O)O)C(=O)O` (stereo partly drawn) [Ex. #3, N-[4-(acetylamino)-4-carboxy-1-oxobutyl]-α-methyl-L-tyrosine], the MAP was 77 ± 5 mm Hg in data set [1] (15 min after injection); 73 ± 4 mm Hg in data set [1] (30 min after injection); 70 ± 2 mm Hg in data set [1] (45 min after injection); 71 ± 6 mm Hg in data set [1] (60 min after injection); 76 ± 5 mm Hg in data set [1] (time after injection Zero min); 175 ± 5 mm Hg in data set [2] (day 1). The MAP in data set [2] (day 2) is 174 ± 5 mm Hg; in data set [2] (day 3), 172 ± 2 mm Hg; in data set [2] (day Zero) it was 164 ± 3 mm Hg. For the same molecule, the RBF in data set [1] (15 min after injection) worked out at 7.1 ± 0.1 mL/min; in data set [1] (30 min after injection), 6.2 ± 0.3 mL/min; in data set [1] (45 min after injection), 5.9 ± 0.1 mL/min; in data set [1] (60 min after injection), 5.9 ± 0.1 mL/min; in data set [1] (time after injection Zero min), 4.8 ± 0.8 mL/min. Moreover, the “acute effect on mean arterial pressure (MAP)” value in data set [1] (i.v. injection) is recorded as “no acute effects”. Also, in data set [1] (i.v. injection), the “acute effect on renal blood flow (RBF)” value is “increased renal blood flow”.
